Patent US11110141B2, “Herbal compositions for the prevention or treatment of urinary incontinence and overactive bladder” (Rox IP Pty Ltd., priority 2011, dated 2021)

Tested on: bladder control problems (urinary frequency, nocturia, stress incontinence, interstitial cystitis)
Assay: Case studies
Assay type: in vivo, human
Experimental: person with a history of bladder frequency since childhood. They were diagnosed as a child, via cystometric studies, as having a small bladder. They were not medicated.
They presented urinary frequency, every 1.5 hours; nocturia (waking for the toilet at night) every 1.5 to 2.5 hours.
If consumed large quantities of alcohol (greater than 8 standard drinks), would experience flooding nocturesis (bed wetting). […]
person with stress incontinence (2-7 times daily) and urinary frequency (11 times daily). […] When presented, they were using oxybutynin patches (Oxytrol). A specialist recommended that they change patches every 3 days.
Person presented with interstitial cystitis that had been worsening for at least the past 5 years. They presented with penile pain (and some lower abdominal pain) that would increase in intensity the fuller their bladder, with relief on urination. As a result, they would need to urinate at least every 1.5 hours, day and night. If they went too long, the pain would increase to the point where they found it extremely difficult to walk or move. Every month, they would have an episode, usually during the night, where they would pass copious amounts of blood and some mucous from the bladder.
They would also find that every two weeks their symptom severity would increase and they would have “horrific, sharp pain all day every day” for two days. […]

| SMILES | tolerability of previously tried drugs (in vivo) | tolerability of previously tried drugs (Case 2, patient history) |
| --- | --- | --- |
| Cc1ccc(O)c([C@H](CCN(C(C)C)C(C)C)c2ccccc2)c1 [Detrol] | could not tolerate the side effects of dry mouth and nasal passages |  |
| CCN(CC)CC#CCOC(=O)C(O)(c1ccccc1)C1CCCCC1 (centres unmarked) [oxybutynin] |  | could not tolerate the side effects of dry mouth and nasal passages |
